pEC50, pIC50: −log10 of the molar value.
Legend:
[1] = Clearance in mouse plasma at 4 mg/kg, iv
[2] = Half life in mouse at 4 mg/kg, iv; conditions: in vivo
[3] = Volume of distribution at steady state in mouse at 4 mg/kg, iv and at 10 mg/kg, po; conditions: in vivo
[4] = target: Voltage-gated inwardly rectifying potassium channel KCNH2 (Homo sapiens, UniProt Q12809); assay: Binding affinity to human ERG
[5] = tested on: Rattus norvegicus; assay: Half life in rat at 1 mg/kg, iv; conditions: in vivo
[6] = tested on: Rattus norvegicus; assay: Volume of distribution at steady state in rat at 1 mg/kg, iv and at 2 mg/kg, po; conditions: in vivo
[7] = target: T1, Somatostatin receptor type 3 (Homo sapiens, UniProt P32745)
T1 sequence (P32745 whole entry): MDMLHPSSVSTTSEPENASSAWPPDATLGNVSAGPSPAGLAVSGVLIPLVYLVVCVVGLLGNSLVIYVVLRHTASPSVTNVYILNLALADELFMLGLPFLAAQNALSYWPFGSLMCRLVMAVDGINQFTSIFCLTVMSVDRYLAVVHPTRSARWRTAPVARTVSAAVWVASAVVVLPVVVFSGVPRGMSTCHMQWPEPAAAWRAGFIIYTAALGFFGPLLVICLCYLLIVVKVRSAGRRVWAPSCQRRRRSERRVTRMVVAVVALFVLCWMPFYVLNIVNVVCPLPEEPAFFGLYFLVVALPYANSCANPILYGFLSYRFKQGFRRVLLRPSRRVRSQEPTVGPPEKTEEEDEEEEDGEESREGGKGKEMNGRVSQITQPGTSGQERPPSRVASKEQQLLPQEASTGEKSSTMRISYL
Description: Binding affinity to human somatostatin receptor type 3

[8] = target: T1, Somatostatin receptor type 3; remark: listed apart in the source
Description: Antagonist activity at human somatostatin receptor type 3 assessed as inhibition of cAMP levels

[9] = organism: Mus musculus; conditions: in vivo, po, 10 mg/kg
[10] = organism: Rattus norvegicus; conditions: in vivo, po, 2 mg/kg
[11] = in vivo; conditions: mouse, po, 10 mg/kg
[12] = in vivo; conditions: rat, po, 2 mg/kg

Voltage-gated inwardly rectifying potassium channel KCNH2, sequence (Q12809 whole entry): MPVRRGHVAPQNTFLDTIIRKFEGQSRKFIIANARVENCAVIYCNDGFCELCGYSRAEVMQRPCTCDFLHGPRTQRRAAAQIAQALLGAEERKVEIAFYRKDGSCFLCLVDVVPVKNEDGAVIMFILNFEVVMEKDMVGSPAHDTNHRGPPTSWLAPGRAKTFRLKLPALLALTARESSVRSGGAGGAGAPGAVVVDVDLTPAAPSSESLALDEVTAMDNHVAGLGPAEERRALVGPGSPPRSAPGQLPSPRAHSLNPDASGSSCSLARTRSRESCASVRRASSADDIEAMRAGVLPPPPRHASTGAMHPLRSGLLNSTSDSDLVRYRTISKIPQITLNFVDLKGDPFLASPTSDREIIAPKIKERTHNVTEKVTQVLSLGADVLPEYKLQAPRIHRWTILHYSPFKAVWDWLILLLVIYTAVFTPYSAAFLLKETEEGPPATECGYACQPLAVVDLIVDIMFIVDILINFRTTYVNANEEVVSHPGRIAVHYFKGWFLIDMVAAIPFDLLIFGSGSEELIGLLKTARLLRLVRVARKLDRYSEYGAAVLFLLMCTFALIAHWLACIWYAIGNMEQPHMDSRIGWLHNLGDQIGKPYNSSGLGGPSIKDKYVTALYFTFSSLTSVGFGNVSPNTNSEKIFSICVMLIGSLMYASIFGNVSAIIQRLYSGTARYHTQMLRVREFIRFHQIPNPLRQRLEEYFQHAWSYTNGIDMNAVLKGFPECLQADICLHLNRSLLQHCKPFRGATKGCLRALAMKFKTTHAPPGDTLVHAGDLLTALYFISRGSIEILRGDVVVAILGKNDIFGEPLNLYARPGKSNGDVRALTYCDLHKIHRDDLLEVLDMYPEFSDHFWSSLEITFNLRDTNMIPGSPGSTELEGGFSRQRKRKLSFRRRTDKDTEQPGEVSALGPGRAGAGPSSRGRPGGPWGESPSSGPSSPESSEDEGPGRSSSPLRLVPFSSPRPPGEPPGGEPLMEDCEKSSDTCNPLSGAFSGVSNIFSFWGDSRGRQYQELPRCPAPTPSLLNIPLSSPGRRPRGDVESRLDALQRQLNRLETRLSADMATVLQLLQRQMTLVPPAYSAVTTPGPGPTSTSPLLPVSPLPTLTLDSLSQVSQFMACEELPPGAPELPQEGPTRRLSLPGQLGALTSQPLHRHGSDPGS

clearance [1]: 77 mL/min/kg
half-life [2]: 1.3 h
Vd [3]: 4.6 L/kg
t1/2 [5]: 0.96 h
Vdss [6]: 13.2 L/kg
pIC50 [7]: 7.64
pEC50 [8]: 7.77
AUC/dose [9]: 0.31 µM·h/mg/kg
AUC/dose [10]: 0.28 µM·h/mg/kg
bioavailability [11]: 58%
bioavailability [12]: 49%
Compound: CC1(c2nc(-c3ccccc3)c[nH]2)Cc2c([nH]c3ccccc23)C(C2CCOCC2)N1 (stereo in doubt; 6a)
pIC50 [4]: 5.66

Reference: ChEMBL document CHEMBL3774320, “SAR exploration at the C-3 position of tetrahydro-β-carboline sstr3 antagonists” (Bioorg Med Chem Lett, 2016)
